In patent US11800867B2, “Methods of repelling biting arthropods, reducing pathogen spread and treating arthropod infestation” (priority 2016, dated 2023):

Columns and labels:
[1] = humans; compound found in bergamot and citrus essential oils; cited from earlier work
[2] = tested on: female Aedes aegypti mosquitoes; experiment: In vitro membrane feeder repellency assay, probing of treated collagen membranes (Example 2); format: in vivo; conditions: 20% DEET in ethanol, 25 μL on collagen membrane; twenty minutes; average ± SE, n = 5
Source text: (§1) A laboratory trial was required to evaluate the repellency of 1% Nootkatone against female Aedes aegypti, Culex quinquefasciatus, and Anopheles quadrimaculatus mosquitoes using an in vitro method.
(§2) Female adult laboratory reared Aedes aegypti, Culex quinquefasciatus, and Anopheles quadrimaculatus mosquitoes (susceptible) were obtained from Benzon Research in Carlisle, Pa. 250 mosquitoes were used per replicate (5 replicates per test, per species). Adult mosquitoes were 3-8 days old.
(§3) Nootkatone was diluted in ethanol and acetone (note that Nootkatone diluted in acetone was not tested against An. quadrimaculatus). A positive control consisting of 20% DEET in ethanol was prepared using stock solutions. Negative controls consisted of no treatment, and ethanol-only treatment.
(§4) The treatments were applied directly to prepared collagen membranes by pipetting 25 μL of the appropriate substance onto a membrane and spreading it evenly with the tip of the pipette.
(§5) Exposure container. A 30.5 cm×30.5 cm×30.5 cm rigid plastic frame supported by four, 4 cm high legs, with a sleeved entry on one side and a sliding door on the bottom.
(§6) Membrane feeder. Five wells (3 cm in diameter×8 mm in depth) in line on a hollow plastic block (6 cm wide×22 cm long×3 cm deep), which fits through the sliding door in the bottom of the exposure container. Hoses attached to each side of the block circulate heated water that is pumped from a water bath. The sliding door in the bottom of the exposure container covers and uncovers the wells in the membrane feeder, allowing mosquitoes to access the wells.
(§7) Test set-up. The membrane feeder was connected to a heated water bath, and warm water passed through the feeder via a circulating pump so that the wells were warmed to 89-95° F. Seventy-two (72) mg of ATP (disodium salt) were added to 26 mL of warmed citrated bovine blood, which was poured into the wells until they were completely full.
(§8) The collagen membranes were placed on vacuum greased wax paper for treatment. They were then treated as described above and left for five minutes to dry. After they dried, the membranes were placed over each of the wells (using vacuum grease as an adhesive), completely covering the blood.
(§9) Exposure to mosquitoes. The mosquitoes were released into the exposure container just prior to exposure to the membranes. The exposure container was then placed on the membrane feeder and the sliding door opened, allowing the mosquitoes to access the wells. The number of mosquitoes probing each membrane was recorded every two minutes for twenty minutes.
(§10) The above procedures were repeated until five replicates were completed. A new batch of 250 female mosquitoes and fresh blood were used for each replicate, and the wells were cleaned in between replicates. The position of the treatments was rotated for each replicate, so that each treatment was tested on each of the five wells.
(§11) Percent repellency was calculated for each replicate using the total number of probes with the following formula:
(§12) [formula] • where C=the total number of probes on the untreated well • and T=the total number of probes on the treated well
(§13) Average percent repellency and standard error were then calculated across all five replicates. Shapiro-Wilks tests were conducted to determine the normality of the data, based on total number of probes per replicate. Depending on normality, student t-tests (with concurrent F-tests for variance) or Mann-Whitney tests were then used to determine significance between the treatments.

[3] = tested on: female Culex quinquefasciatus mosquitoes; experiment: as above; format: in vivo; conditions: 20% DEET in ethanol, 25 μL on collagen membrane; twenty minutes; average ± SE, n = 5
Source text: as §1, §2, §3, §4, §5, §6, §7, §8, §9, §10, §11, §12, §13

[4] = tested on: female Anopheles quadrimaculatus mosquitoes; experiment: as above; format: in vivo; conditions: 20% DEET in ethanol, 25 μL on collagen membrane; twenty minutes; average ± SE, n = 5
Source text: as §1, §2, §3, §4, §5, §6, §7, §8, §9, §10, §11, §12, §13

SMILES | Phototoxicity [1] | Percent repellency [2] | Percent repellency [3] | Percent repellency [4]
COc1c2ccoc2cc2oc(=O)ccc12 [Bergapten, 5-methoxypsoralen] | causes phototoxicity in humans |  |  | 
CCN(CC)C(=O)c1cccc(C)c1 [DEET, N,N-Diethyl-meta-toluamide, reference compound] |  | 99.4 ± 0.6% | 95.9 ± 4.1% | 100.0 ± 0.0%
